Here are results for 6 compounds from patent publication US20060014219A1 (priority 2002, published 2006).

Like-named read-outs stand apart in the source and are kept apart here.

For test [1], the system named is tobacco budworm GABA-gated chloride channel. The class given is cell-based. The following applies: for Fluorescence: then GABA, HEK a-3 cells, average of three tests. How it is done:
The following solutions were prepared prior to or on the same day the experiment was to be carried out: • Solution A: To about one liter of deionized water was added 8.0 grams of sodium chloride, 0.395 gram of potassium chloride, 0.294 gram of calcium chloride, 0.203 gram of magnesium chloride, 4.5 grams of glucose, and 2.38 grams of [4-(2-hydroxyethyl)-1-piperazineethanesulfonic acid (“HEPES”) (all available from Aldrich Chemical Company, Milwaukee, Wis.). The resulting solution was stirred until dissolution was complete and then the pH adjusted to 7.3 to 7.4 with an aqueous 1 M sodium hydroxide solution. • Solution B: To one vile of the dye (“FLIPR® Membrane Potential Assay Reagent, Component A”) contained in the FLIPR® Membrane Potential Assay Kit was added about 10 ml of Solution A. The resulting mixture was mixed by repeated pippetting until the content of the vile was completely dissolved and used immediately or stored at […] for future use.
The following solution was prepared on the same day the experiment was to be carried out: • Solution C: To solution B was added about 90 mL of Solution A. The resulting mixture was mixed until dissolution was complete. • Solution D: GABA (available from Sigma Chemical Co., St. Louis, Mo.), […], was taken up in 30 ml of Solution A. The resulting solution was mixed until dissolution was completion, yielding a […] GABA solution. • Solution E: To 1.2 ml of Solution D was added 38.8 ml of Solution A. The resulting mixture was mixed by repeated pippetting until dissolution was complete, yielding a 300 μM GABA solution.
On the same day the experiment is to be carried, Solutions A-E are prepared again in the manner described above.
One day before of the experiment, HEK a-3 cells were seeded into two wells of a poly-D-lysine coated blackwall 96 well microplate with clear bottom at a cell density of about 100,000 cells per well. Upon completion of addition, the cells were incubated at 37° C. in a cell culture incubator for twenty-four hours, for use below.
In carrying out the first step, on the day of the experiment, the 96 well microplate containing the HEK a-3 cells was removed from the incubator and 100 μl of Solution C was added to the two wells of the 96 well microplate. Upon completion of addition, the microplate was allowed to stand at ambient temperature of 3.5 to 4 hours. After this time, the microplate was placed onto the FLIPR^384® Fluorometric Imaging Plate Reader system in which the laser intensity was set at a suitable level to obtain a basal value of approximately 10,000 fluorescence units, fluorescent readings were obtained every one second for the first minute and then every six seconds thereafter, and fluorescence measurements were captured by a cooled CCD camera. After ten seconds from the start of the fluorescence measurements, 25 μl of Solution E was added at a rate of 25 μl/second by the system to one of the two wells of the 96 well microplate. Upon completion of addition, the level of fluorescence of the HEK a-3 cells was determined using the FLIPR^384® Fluorometric Imaging Plate Reader system.
One day before of the experiment, HEK a-3 cells were seeded into each well of a poly-D-lysine coated blackwall 96 well microplate with clear bottom (available from Becton, Dickinson and Company, Franklin Lakes, N.J.) at a cell density of about 100,000 cells per well. Upon completion of addition, the cells were incubated at 37° C. in a cell culture incubator for twenty-four hours, for use below.
In carrying out the first step, on the day of the experiment, the 96 well microplate containing the HEK a-3 cells was removed from the incubator and 100 μl of Solution C were added to each well of the 96 well microplate. Upon completion of addition, the microplate was stored at ambient temperature for 3.5 to 4 hours. […]

Test [2] has the same test system. As to the kind of experiment: Fluorescence in HEK a-3 cells by the standard protocol of the FLIPR Membrane Potential Assay Kit. The following applies: 25 μl of 300 μM GABA solution; dye incubated at 37° C. for 0.5 to one hour; FIG. 1. The test is classed as cell-based. How it is done:
This example illustrates the measurement of fluorescence in HEK a-3 cells in the manner described in the protocol for the FLIPR® Membrane Potential Assay Kit.
The following solutions were prepared prior to or on the same day the experiment was to be carried out: • Solution A: To about one liter of deionized water was added 8.0 grams of sodium chloride, 0.395 gram of potassium chloride, 0.294 gram of calcium chloride, 0.203 gram of magnesium chloride, 4.5 grams of glucose, and 2.38 grams of [4-(2-hydroxyethyl)-1-piperazineethanesulfonic acid (“HEPES”) (all available from Aldrich Chemical Company, Milwaukee, Wis.). […]
In carrying out the first step, on the day of the experiment, the 96 well microplate containing the HEK a-3 cells was removed from the incubator and 100 μl of Solution C was added to the two wells of the 96 well microplate. […] After this time, the microplate was placed onto the FLIPR^384® Fluorometric Imaging Plate Reader system in which the laser intensity was set at a suitable level to obtain a basal value of approximately 10,000 fluorescence units, fluorescent readings were obtained every one second for the first minute and then every six seconds thereafter, and fluorescence measurements were captured by a cooled CCD camera. […]

Where [3] appears, read: 0.003 μM compound, relative to DMSO control.
[4] abbreviates: 0.01 μM compound, relative to DMSO control.
Setting [5] is: 0.03 μM compound, relative to DMSO control.
[6] abbreviates: 0.1 μM compound, relative to DMSO control.
[7] abbreviates: 0.3 μM compound, relative to DMSO control.
Where [8] appears, read: 1 μM compound, relative to DMSO control.
The mark [9] stands for this setting: 3 μM compound, relative to DMSO control.
Where [10] appears, read: 10 μM compound, [1 − (fluorescence of test compound/fluorescence of control)] × 100.

As for `O=S1OCC2C(CO1)C1(Cl)C(Cl)=C(Cl)C2(Cl)C1(Cl)Cl` (stereo not drawn) [Endosulfan, endosulfan], the Fluorescence amounted to 14343 in test [1] (0.003 μM compound); 15198 in test [1] (0.01 μM compound); 11074 in test [1] (0.03 μM compound); 7098 in test [1] (0.1 μM compound); 4426 in test [1] (0.3 μM compound); 1903 in test [1] (1 μM compound). In addition, the Fluorescence was 1615 in test [1] (3 μM compound) and 993 in test [1] (10 μM compound). Further, the “% Inhibition” value was −3% in test [1] (setting [3]); −9% in test [1] (setting [4]); 20% in test [1] (setting [5]); 48% in test [1] (setting [6]); 68% in test [1] (setting [7]); 86% in test [1] (setting [8]). In addition, the “% Inhibition” value in test [1] (setting [9]) came to 88%; in test [1] (setting [10]), 93%.

Compound `CCCC(C)C1(CC)C(=O)NC(=O)NC1=O` (stereo not drawn) [Pentabarbitol] displayed a Fluorescence in test [1] (10 μM compound) of 11575. In addition, in test [1] (setting [10]), the “% Inhibition” value came to 5%.

Take `ClC1=C(Cl)[C@]2(Cl)[C@@H]3[C@@H]4C[C@@H]([C@H]5O[C@@H]45)[C@@H]3[C@@]1(Cl)C2(Cl)Cl` [Dieldrin, dieldrin]: the Fluorescence in test [1] (0.003 μM compound) is on record as 13284; in test [1] (0.01 μM compound) it was 12339; in test [1] (0.03 μM compound), 11492; in test [1] (0.1 μM compound) it was 9924; in test [1] (0.3 μM compound) it was 7279; in test [1] (1 μM compound), 4184. The results for the Fluorescence in test [1] (3 μM compound) and in test [1] (10 μM compound) were 900 and 67, respectively. Further, the “% Inhibition” value in test [1] (setting [3]) is −1%; in test [1] (setting [4]), 5%; in test [1] (setting [5]), 12%; in test [1] (setting [6]), 34%; in test [1] (setting [7]), 44%; in test [1] (setting [8]), 68%. The “% Inhibition” value is 93% in test [1] (setting [9]) and 100% in test [1] (setting [10]).

Consider `CN1CCc2cc3c(cc2[C@H]1[C@@H]1OC(=O)c2c1ccc1c2OCO1)OCO3` [Bicuculine, bicuculine], for which, in test [1] (10 μM compound), the Fluorescence came out at 11543. For the same compound, the “% Inhibition” value in test [1] (setting [10]) stood at 5%.

`N#Cc1nn(-c2c(Cl)cc(C(F)(F)F)cc2Cl)c(N)c1[S+]([O-])C(F)(F)F` (stereo not drawn) [Fipronil, fipronil]: the Fluorescence in test [1] (0.003 μM compound) worked out at 11275; in test [1] (0.01 μM compound), 8328; in test [1] (0.03 μM compound) it was 6441; in test [1] (0.1 μM compound), 4469; in test [1] (0.3 μM compound) it was 2990; in test [1] (1 μM compound) it was 1790. Moreover, the Fluorescence in test [1] (3 μM compound) is on record as 1031; in test [1] (10 μM compound), 628. Also, the “% Inhibition” value in test [1] (setting [3]) came to 10%; in test [1] (setting [4]) it was 43%; in test [1] (setting [5]), 48%; in test [1] (setting [6]), 64%; in test [1] (setting [7]), 76%; in test [1] (setting [8]) it was 86%. In addition, the figures for the “% Inhibition” value in test [1] (setting [9]) and in test [1] (setting [10]) were 92% and 95%, respectively.

As to `NCCCC(=O)O` [GABA, Gamma amino-n-butyric acid], the “change in fluorescence after addition of GABA” value in test [2] is reported as “no change in fluorescence was observed”; in test [1] (25 μl of 300 μM GABA solution, dye at ambient temperature 3.5 to 4 hours, FIG. 2) it was “an increase in fluorescence”.

What is called % Inhibition is the change of the read-out against control, counted positive when it falls.
